Source: patent US5175159A, “3-substituted-1,4-benzodiazepines as oxytocin antagonists” (Merck & Co., Inc., priority 1990, dated 1992)
Read-outs that look alike come from different tables or passages of the source.

Target: T1, oxytocin receptor (Rattus norvegicus, UniProt P70536)
T1 construct: crude membrane preparation of rat uterus as the source of oxytocin receptors; from tissue; host or cells: rat uterus, crude membrane preparation
T1 sequence (P70536 1-388): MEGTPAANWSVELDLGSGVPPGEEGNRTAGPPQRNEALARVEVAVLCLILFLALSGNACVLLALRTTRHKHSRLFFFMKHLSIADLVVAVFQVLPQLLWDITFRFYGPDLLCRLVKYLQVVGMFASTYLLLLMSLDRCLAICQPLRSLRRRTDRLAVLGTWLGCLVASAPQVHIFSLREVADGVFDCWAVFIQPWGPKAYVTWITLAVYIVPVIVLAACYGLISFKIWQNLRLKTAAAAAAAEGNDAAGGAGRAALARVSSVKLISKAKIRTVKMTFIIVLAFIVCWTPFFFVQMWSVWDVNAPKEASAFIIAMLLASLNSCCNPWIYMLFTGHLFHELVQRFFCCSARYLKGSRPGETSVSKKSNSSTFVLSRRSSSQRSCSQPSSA
Test: [^3H]Oxytocin Binding Assay (crude membrane preparation of rat uterus)
Settings: for inhibition at 1 µM: read-out: % inhibition @ μM conc. (1 μM), [^3H]oxytocin binding, rat uterus membranes
Source text: The biological activities of the compounds of Formula I have been evaluated using a[^3 H]oxytocin binding assay.
[^3 H]Oxytocin Binding Assay
Oxytocin receptors have been identified in mammalian uterine tissue through the use of in vitro radioligand binding assays. These receptor binding sites mediate the contractile response of the uterine myometrium to oxytocin. The present radioligand binding procedure has been adapted from the methods of Soloff, M. S. and Grzonka, Z., Endocrinology 119: 1564-1569 (1986) and Fuchs, A-R., Fuchs, F., and Soloff, M. S., J. Clinical Endocrinology and Metabolism 60: 37-41 (1985) and is utilized here to measure the relative affinity of test compounds for the oxytocin receptor labeled by [^3 H]oxytocin. The assay uses a crude membrane preparation of rat uterus as the source of oxytocin receptors. The IC50 values (concentration of test compound to inhibit [^3 H]oxytocin binding by 50%) are determined by incubating uterine tissue with [^3 H]oxytocin in the presence or absence of varying concentrations of compound.

[1] = read-out: % inhibition @ μM conc. (10 μM), [^3H]oxytocin binding, rat uterus membranes, @ 10 μM
[2] = [^3H]oxytocin binding, rat uterus membranes, @ 10 μM, read-out: % inhibition @ μM conc. (10 μM)

Compound	IC50 [nM]	inhibition at 10 µM [1] [%]	also measured
CN1C(=O)C(NC(=O)CC23CC4CC(CC(C4)C2)C3)N=C(c2ccccc2)c2ccccc21 (racemic) [Example 5, (+/-)-N-(2,3-DIHYDRO-1-METHYL-2-OXO-5-PHENYL-1H-1,4-BENZODIAZEPIN-3-YL)-TRICYCLO(3.3.1.1(3,7))DECANE-1-ACETAMIDE)]	2800	–	–
CN1C(=O)[C@@H](NS(=O)(=O)C[C@]23CC[C@H](CC2=O)C3(C)C)N=C(c2ccccc2)c2ccccc21 [Example 21, (1S-(1.ALPHA.(R*), 4.ALPHA.))-N-(2,3-DIHYDRO-1-METHYL-2-OXO-5-PHENYL-1H-1,4-BENZODIAZEPIN-3-YL)-7,7-DIMETHYL-2-OXO-BICYCLO(2.2.1)HEPTANE-1-METHANESULFONAMIDE]	–	15	–
CN1C(=O)CN(C(=O)NC2C3CC4CC(C3)CC2C4)C(c2ccccc2)c2ccccc21 (racemic) [Example 13, (+/-)-1,2,3,5-TETRAHYDRO-1-METHYL-2-OXO-5-PHENYL-N-TRICYCLO(3.3.1.1(3,7))DEC-2-YL-4H-1,4-BENZODIAZEPINE-4-CARBOXAMIDE]	–	–	inhibition at 10 µM [2]: 48%
CN1C(=O)C(NS(=O)(=O)C[C@@]23CC[C@@H](CC2=O)C3(C)C)N=C(c2ccccc2)c2ccccc21 (stereo partly drawn) [Example 9, (1R-(1.ALPHA.(RS),4.ALPHA.))-N-(2,3-DIHYDRO-1-METHYL-2-OXO-5-PHENYL-1H-1,4- BENZODIAZEPIN-3-YL)-7,7-DIMETHYL-2-OXO-BICYCLO(2.2.1)HEPTANE-1-METHANESULFONAMIDE]	3600	–	–
CN1C(=O)CN(C(=O)NCC23CC4CC(CC(C4)C2)C3)C(c2ccccc2)c2ccccc21 (racemic) [Example 12, (+/-)-1,2,3,5-TETRAHYDRO-1-METHYL-2-OXO-5-PHENYL-N-(TRICYCLO(3.3.1.1.(3,7))DEC-1-YLMETHYL)-4H-1,4-BENZODIAZEPINE-4-CARBOXAMIDE]	–	–	inhibition at 10 µM [2]: 66%
CN1C(=O)C(NC(=O)NC2C3CC4CC(C3)CC2C4)N=C(c2ccccc2)c2ccccc21 (racemic) [Example 1, (+/-)-N-(2,3-DIHYDRO-1-METHYL-2-OXO-5-PHENYL-1H-1,4-BENZODIAZEPIN-3-YL)-N'- TRICYCLO(3.3.1.1(3,7))DEC-2-YL-UREA]	3900	–	–
CN1C(=O)[C@@H](NC(=O)CC2C3CCC(C)(C2O)C3(C)C)N=C(c2ccccc2)c2ccccc21 (single isomer, unassigned) [Example 22A]	–	50	–
CN1C(=O)C(NS(=O)(=O)CC23CCC(CC2O)C3(C)C)N=C(c2ccccc2)c2ccccc21 (single isomer, unassigned) [Example 16B, N-(2,3-DIHYDRO-1-METHYL-2-OXO-5-PHENYL-1H-1,4-BENZODIAZEPIN-3-YL)-2-HYDROXY-7,7-DIMETHYL-BICYCLO(2.2.1) HEPTANE-1-METHANESULFONAMIDE, ISOMER A AND ISOMER B]	–	–	IC50 (read-out: [^3 H]OT(uterus) IC50, inhibition of [^3H]oxytocin binding, rat uterus membranes): 1000 nM
CN1C(=O)[C@H](NS(=O)(=O)C[C@]23CC[C@H](CC2=O)C3(C)C)N=C(c2ccccc2)c2ccccc21 [Example 20, (1S-(1.ALPHA.(S*),4.ALPHA.))-N-(2,3-DIHYDRO-1-METHYL-2-OXO-5-PHENYL-1H-1,4- BENZODIAZEPIN-3-YL)-7,7-DIMETHYL-2-OXO-BICYCLO(2.2.1)HEPTANE-1-METHANESULFONAMIDE]	–	80	inhibition at 1 µM: 35%
CN1C(=O)C(NC(=O)NC2C3CC4CC(C3)CC2C4)N=C(c2ccccc2)c2ccccc21 (single isomer, unassigned; (+)) [Example 2, (+)-N-(2,3-DIHYDRO-1-METHYL-2-OXO-5-PHENYL-1H-1,4-BENZODIAZEPIN-3-YL)-N'-TRICYCLO(3.3.1.1(3,7))DEC-2-YL-UREA]	1600	–	–
CN1C(=O)[C@H](NC(=O)C2C(=O)C3(C)CCC2C3(C)C)N=C(c2ccccc2)c2ccccc21 (stereo partly drawn) [Example 23, [3(R)-N-(2,3-DIHYDRO-1-METHYL-2-OXO-5-PHENYL-1H-1,4-BENZODIAZEPIN-3-YL)]-2- OXO-1,7,7-TRIMETHYLBICYCLO(2.2.1)HEPTANE-3-CARBOXAMIDE]	–	85	inhibition at 1 µM: 35%
CN1C(=O)[C@H](NS(=O)(=O)C[C@@]23CC[C@@H](CC2O)C3(C)C)N=C(c2ccccc2)c2ccccc21 (single isomer, unassigned) [Example 16A, N-(2,3-DIHYDRO-1-METHYL-2-OXO-5-PHENYL-1H-1,4-BENZODIAZEPIN-3-YL)-2-HYDROXY-7,7-DIMETHYL-BICYCLO(2.2.1) HEPTANE-1-METHANESULFONAMIDE, ISOMER A AND ISOMER B]	1400	–	–
CN1C(=O)[C@@H](NC(=O)CC2C3CCC(C)(C2O)C3(C)C)N=C(c2ccccc2)c2ccccc21 (single isomer, unassigned) [Example 22B]	–	–	% inhibition @ μM conc. (10 μM) ([^3H]oxytocin binding, rat uterus membranes, @ 10 μM): 41%
CN1C(=O)C(NS(=O)(=O)C[C@]23CC[C@H](CC2=O)C3(C)C)N=C(c2ccccc2)c2ccccc21 (stereo partly drawn) [Example 8, (1S)-(1.ALPHA.(RS),4.ALPHA.))-N-(2,3-DIHYDRO-1-METHYL-2-OXO-5-PHENYL-1H-1,4-BENZODIAZEPIN-3-YL)-7,7-DIMETHYL-2-OXO-BICYCLO(2.2.1)HEPTANE-1-METHANESULFONAMIDE]	4600	–	–
CCOC(=O)[C@@H](NC(=O)NC1N=C(c2ccccc2)c2ccccc2N(C)C1=O)c1ccccc1 (single isomer, unassigned) [Example 11, ALPHA.-((((2,3-DIHYDRO-1-METHYL-2-OXO-5-PHENYL-1H-1,4-BENZODIAZEPIN-3-YL)AMINO)CARBONYL)AMINO)BEN[…] ETHYL ESTER, ALPHA ISOMER]	–	46	–
CN1C(=O)C(NC(=O)CC23CC4CC(CC(C)(C4)C2)C3)N=C(c2ccccc2)c2ccccc21 (racemic) [Example 7, (+/-)-N-(2,3-DIHYDRO-1-METHYL-2-OXO-5-PHENYL-1H-1,4-BENZODIAZEPIN-3-YL)-3-METHYLTRICYCLO(3.3.1.1(3,7))DECANE-1-ACETAMIDE]	4700	–	–
CN1C(=O)[C@@H](NS(=O)(=O)C[C@@]23CC[C@@H](CC2O)C3(C)C)N=C(c2ccccc2)c2ccccc21 (stereo partly drawn) [Example 17, N-(2,3-DIHYDRO-1-METHYL-2-OXO-5-PHENYL-1H-1,4-BENZODIAZEPIN-3-YL)-2-HYDROXY-7,7-DIMETHYL-BICYCLO(2.2.1) HEPTANE-1-METHANESULFONAMIDE]	2500	–	–
CN1C(=O)C(NC(=O)NCC23CC4CC(CC(C4)C2)C3)N=C(c2ccccc2)c2ccccc21 (racemic) [Example 6, (+/-)-N-(2,3-DIHYDRO-1-METHYL-2-OXO-5-PHENYL-1H-1,4-BENZODIAZEPIN-3-YL)-N'- TRICYCLO(3.3.1.1(3,7))DEC-1-YL-METHYL)-UREA]	2700	–	–
CN1C(=O)[C@@H](NC(=O)CC2C(=O)C3(C)CCC2C3(C)C)N=C(c2ccccc2)c2ccccc21 (single isomer, unassigned) [Example 18]	–	39	–
CN1C(=O)[C@H](NC(=O)NC23CC4CC(CC(C4)C2)C3)N=C(c2ccccc2)c2ccccc21 (single isomer, unassigned) [Example 3]	1690	–	–
CN1C(=O)C(NC(=O)C23CC4CC(CC(C4)C2)C3)N=C(c2ccccc2)c2ccccc21 (racemic) [Example 4, (+/-)-N-(2,3-DIHYDRO-1-METHYL-2-OXO-5-PHENYL-1H-1,4-BENZODIAZEPIN-3-YL)-TRICYCLO(3.3.1.1(3,7))DECANE-1-CARBOXAMIDE]	13800	–	–
CN1C(=O)[C@@H](NS(=O)(=O)C[C@@]23CC[C@@H](CC2=O)C3(C)C)N=C(c2ccccc2)c2ccccc21 [Example 14, (1R-(1.ALPHA.(R*),4.ALPHA.))-N-(2,3-DIHYDRO-1-METHYL-2-OXO-5-PHENYL-1H-1,4- BENZODIAZEPIN-3-YL)-7,7-DIMETHYL-2-OXO-BICYCLO(2.2.1)HEPTANE-1-METHANESULFONAMIDE]	–	52	–
CN1C(=O)[C@H](NS(=O)(=O)C[C@@]23CC[C@@H](CC2=O)C3(C)C)N=C(c2ccccc2)c2ccccc21 [Example 15, (1R-(1.ALPHA.(S*),4.ALPHA.))-N-(2,3-DIHYDRO-1-METHYL-2-OXO-5-PHENYL-1H-1,4- BENZODIAZEPIN-3-YL)-7,7-DIMETHYL-2-OXO-BICYCLO(2.2.1)HEPTANE-1-METHANESULFONAMIDE]	1400	–	–
CN1C(=O)[C@H](NC(=O)CC2C(=O)C3(C)CCC2C3(C)C)N=C(c2ccccc2)c2ccccc21 (single isomer, unassigned) [Example 19]	–	82	inhibition at 1 µM: 39%
